Experimental data reported in patent publication US9695155B2, “Herbicidal substituted pyrimidinyloxy benzene compounds” (E. I. DU PONT DE NEMOURS AND COMPANY, priority 2013, dated 2017).

Assays:
johnsongrass = test: Test C postemergence; assay type: in vivo, Sorghum halepense; conditions: for Johnsongrass plant response rating: 16 g ai/ha, visual rating; for Johnsongrass plant response rating / Plant response rating (0 to 100), Johnsongrass: postemergence; for Johnsongrass plant response rating / Plant response rating, Johnsongrass: scale 0 to 100 (0 no effect, 100 complete control); for Plant response rating (0 to 100), Johnsongrass: 125 g ai/ha; for Plant response rating, Johnsongrass: Postemergence
How it was run: (§1)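 Injury was assessed visually against controls 13 to 15 days after application, with 0 meaning no effect and 100 full control; missing entries are shown as a dash. Preemergence sprays hit seeded loam–sand soil, postemergence sprays hit 1- to 4-leaf plants.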

waterhemp = test: Test C postemergence; assay type: in vivo, Amaranthus rudis; conditions: for Plant response rating (0 to 100), Waterhemp: 125 g ai/ha, postemergence; for Plant response rating, Waterhemp: Postemergence, scale 0 to 100 (0 no effect, 100 complete control)
How it was run: as §1

large (Lg) crabgrass [1] = test: Test A preemergence; assay type: in vivo, Digitaria sanguinalis; conditions: for Plant response rating, Crabgrass, Large: 125 g ai/ha, 0 to 100 scale where 0 is no effect and 100 is complete control; for Crabgrass, Large plant response rating: 500 g ai/ha, 0 to 100 scale, 0 no effect, 100 complete control, approx. 10 days
How it was run: (§2)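 Injury scores run from 0, no effect, to 100, complete control, judged by eye against untreated plants roughly 10 days after treatment. Chemicals carried a surfactant in a non-phytotoxic solvent and went onto loam–sand soil preemergence or onto one- to two-leaf seedlings postemergence.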

velvetleaf = test: Test A preemergence; assay type: in vivo, Abutilon theophrasti; conditions: 125 g ai/ha, 0 to 100 scale where 0 is no effect and 100 is complete control
How it was run: as §2

corn = test: Test C postemergence; assay type: in vivo, Zea mays; conditions: for Corn plant response rating: 16 g ai/ha, visual rating; for Corn plant response rating / Plant response rating (0 to 100), Corn: postemergence; for Corn plant response rating / Plant response rating, Corn: scale 0 to 100 (0 no effect, 100 complete control); for Plant response rating (0 to 100), Corn: 125 g ai/ha; for Plant response rating, Corn: Postemergence
How it was run: as §1

giant foxtail [2] = test: Test C postemergence; assay type: in vivo, Setaria faberii; conditions: for Foxtail, Giant plant response rating: 16 g ai/ha, visual rating; for Foxtail, Giant plant response rating / Plant response rating (0 to 100), Foxtail, Giant: postemergence; for Foxtail, Giant plant response rating / Plant response rating, Foxtail, Giant: scale 0 to 100 (0 no effect, 100 complete control); for Plant response rating (0 to 100), Foxtail, Giant: 125 g ai/ha; for Plant response rating, Foxtail, Giant: Postemergence
How it was run: as §1

yellow nutsedge = test: Test C postemergence; assay type: in vivo, Cyperus esculentus; conditions: for Plant response rating (0 to 100), Nutsedge, Yellow: 125 g ai/ha, postemergence; for Plant response rating, Nutsedge, Yellow: Postemergence, scale 0 to 100 (0 no effect, 100 complete control)
How it was run: as §1

morningglory [3] = test: Test A postemergence; assay type: in vivo, Ipomoea spp.; conditions: 0 to 100 scale where 0 is no effect and 100 is complete control
How it was run: as §2

blackgrass = test: Test C postemergence; assay type: in vivo, Alopecurus myosuroides; conditions: for Blackgrass plant response rating: 16 g ai/ha, visual rating; for Blackgrass plant response rating / Plant response rating (0 to 100), Blackgrass: postemergence; for Blackgrass plant response rating / Plant response rating, Blackgrass: scale 0 to 100 (0 no effect, 100 complete control); for Plant response rating (0 to 100), Blackgrass: 125 g ai/ha; for Plant response rating, Blackgrass: Postemergence
How it was run: as §1

large (Lg) crabgrass [4] = test: Test C postemergence; assay type: in vivo, Digitaria sanguinalis; conditions: for Crabgrass, Large plant response rating: 16 g ai/ha, visual rating; for Crabgrass, Large plant response rating / Plant response rating (0 to 100), Crabgrass, Large: postemergence; for Crabgrass, Large plant response rating / Plant response rating, Crabgrass, Large: scale 0 to 100 (0 no effect, 100 complete control); for Plant response rating (0 to 100), Crabgrass, Large: 125 g ai/ha; for Plant response rating, Crabgrass, Large: Postemergence
How it was run: as §1

wild oat = test: Test C postemergence; assay type: in vivo, Avena fatua; conditions: for Plant response rating (0 to 100), Oat, Wild: 125 g ai/ha, postemergence; for Plant response rating, Oat, Wild: Postemergence, scale 0 to 100 (0 no effect, 100 complete control)
How it was run: as §1

Italian ryegrass = test: Test C postemergence; assay type: in vivo, Lolium multiflorum; conditions: for Plant response rating (0 to 100), Ryegrass, Italian: 125 g ai/ha, postemergence; for Plant response rating, Ryegrass, Italian: Postemergence, scale 0 to 100 (0 no effect, 100 complete control)
How it was run: as §1

morningglory [5] = test: Test A preemergence; assay type: in vivo, Ipomoea spp.; conditions: for Plant response rating, Morningglory: 125 g ai/ha, 0 to 100 scale where 0 is no effect and 100 is complete control; for Morningglory plant response rating: 500 g ai/ha, 0 to 100 scale, 0 no effect, 100 complete control, approx. 10 days
How it was run: as §2

giant foxtail [6] = test: Test A preemergence; assay type: in vivo, Setaria faberii; conditions: for Plant response rating, Foxtail, Giant: 125 g ai/ha, 0 to 100 scale where 0 is no effect and 100 is complete control; for Foxtail, Giant plant response rating: 500 g ai/ha, 0 to 100 scale, 0 no effect, 100 complete control, approx. 10 days
How it was run: as §2

chickweed = test: Test C postemergence; assay type: in vivo, Stellaria media; conditions: for Chickweed plant response rating: 16 g ai/ha, visual rating; for Chickweed plant response rating / Plant response rating (0 to 100), Chickweed: postemergence; for Chickweed plant response rating / Plant response rating, Chickweed: scale 0 to 100 (0 no effect, 100 complete control); for Plant response rating (0 to 100), Chickweed: 125 g ai/ha; for Plant response rating, Chickweed: Postemergence
How it was run: as §1

With `Fc1cnc(Oc2cccc(C(F)F)c2-n2cc(Cl)cn2)nc1` [Compound 94] the “Johnsongrass plant response rating” value (johnsongrass; 13 to 15 days) was 5, the “Plant response rating (0 to 100), Johnsongrass” value (johnsongrass) was 5 and the “Plant response rating, Johnsongrass” value (johnsongrass; 31 g ai/ha, 13 to 15 days) was 5. For the same compound, the “Plant response rating, Johnsongrass” value (johnsongrass; 62 g ai/ha) was 5, the “Plant response rating (0 to 100), Waterhemp” value (waterhemp) was 70 and the “Plant response rating, Waterhemp” value (waterhemp; 31 g ai/ha, 13 to 15 days) was 80. For the same compound, the “Plant response rating, Waterhemp” value (waterhemp; 62 g ai/ha) was 75, the “Plant response rating, Crabgrass, Large” value (large (Lg) crabgrass [1]) was 100 and the “Crabgrass, Large plant response rating” value (large (Lg) crabgrass [1]) was 100. For the same compound, the “Plant response rating, Velvetleaf” value (velvetleaf) was 90, the “Corn plant response rating” value (corn; 13 to 15 days) was 5 and the “Plant response rating (0 to 100), Corn” value (corn) was 5. For the same compound, the “Plant response rating, Corn” value (corn; 31 g ai/ha, 13 to 15 days) was 5, the “Plant response rating, Corn” value (corn; 62 g ai/ha) was 35 and the “Foxtail, Giant plant response rating” value (giant foxtail [2]; 13 to 15 days) was 10. The “Plant response rating (0 to 100), Foxtail, Giant” value (giant foxtail [2]) was 10, the “Plant response rating, Foxtail, Giant” value (giant foxtail [2]; 31 g ai/ha, 13 to 15 days) was 10 and the “Plant response rating, Foxtail, Giant” value (giant foxtail [2]; 62 g ai/ha) was 10. The “Plant response rating (0 to 100), Nutsedge, Yellow” value (yellow nutsedge) was 10, the “Plant response rating, Nutsedge, Yellow” value (yellow nutsedge; 31 g ai/ha, 13 to 15 days) was 5 and the “Plant response rating, Nutsedge, Yellow” value (yellow nutsedge; 62 g ai/ha) was 45. For the same compound, the “Plant response rating, Morningglory” value (morningglory [3]; 125 g ai/ha) was 80, the “Plant response rating, Morningglory” value (morningglory [3]; 500 g ai/ha) was 100 and the “Blackgrass plant response rating” value (blackgrass; 13 to 15 days) was 0. For the same compound, the “Plant response rating (0 to 100), Blackgrass” value (blackgrass) was 5, the “Plant response rating, Blackgrass” value (blackgrass; 31 g ai/ha, 13 to 15 days) was 5 and the “Plant response rating, Blackgrass” value (blackgrass; 62 g ai/ha) was 5. The “Crabgrass, Large plant response rating” value (large (Lg) crabgrass [4]; 13 to 15 days) was 5, the “Plant response rating (0 to 100), Crabgrass, Large” value (large (Lg) crabgrass [4]) was 10 and the “Plant response rating, Crabgrass, Large” value (large (Lg) crabgrass [4]; 31 g ai/ha, 13 to 15 days) was 5. The “Plant response rating, Crabgrass, Large” value (large (Lg) crabgrass [4]; 62 g ai/ha) was 10, the “Plant response rating (0 to 100), Oat, Wild” value (wild oat) was 5 and the “Plant response rating, Oat, Wild” value (wild oat; 31 g ai/ha, 13 to 15 days) was 0. The “Plant response rating, Oat, Wild” value (wild oat; 62 g ai/ha) was 0, the “Plant response rating (0 to 100), Ryegrass, Italian” value (Italian ryegrass) was 5 and the “Plant response rating, Ryegrass, Italian” value (Italian ryegrass; 31 g ai/ha, 13 to 15 days) was 0. For the same compound, the “Plant response rating, Ryegrass, Italian” value (Italian ryegrass; 62 g ai/ha) was 0, the “Plant response rating, Morningglory” value (morningglory [5]) was 40 and the “Morningglory plant response rating” value (morningglory [5]) was 90. For the same compound, the “Plant response rating, Foxtail, Giant” value (giant foxtail [6]) was 100, the “Foxtail, Giant plant response rating” value (giant foxtail [6]) was 100 and the “Chickweed plant response rating” value (chickweed; 13 to 15 days) was 10. The “Plant response rating (0 to 100), Chickweed” value (chickweed) was 70, the “Plant response rating, Chickweed” value (chickweed; 31 g ai/ha, 13 to 15 days) was 60 and the “Plant response rating, Chickweed” value (chickweed; 62 g ai/ha) was 60.
In the case of `N#Cc1cccc(Oc2ncc(Cl)cn2)c1-n1cc(OC(F)F)cn1` [Compound 97], the “Johnsongrass plant response rating” value (johnsongrass; 13 to 15 days) is reported as 5, the “Plant response rating (0 to 100), Johnsongrass” value (johnsongrass) is reported as 5 and the “Plant response rating, Johnsongrass” value (johnsongrass; 31 g ai/ha, 13 to 15 days) is reported as 5. For the same compound, the “Plant response rating, Johnsongrass” value (johnsongrass; 62 g ai/ha) was 15, the “Plant response rating (0 to 100), Waterhemp” value (waterhemp) was 95 and the “Plant response rating, Waterhemp” value (waterhemp; 31 g ai/ha, 13 to 15 days) was 85. For the same compound, the “Plant response rating, Waterhemp” value (waterhemp; 62 g ai/ha) was 90, the “Plant response rating, Crabgrass, Large” value (large (Lg) crabgrass [1]) was 100 and the “Crabgrass, Large plant response rating” value (large (Lg) crabgrass [1]) was 100. The “Plant response rating, Velvetleaf” value (velvetleaf) was 100, the “Corn plant response rating” value (corn; 13 to 15 days) was 5 and the “Plant response rating (0 to 100), Corn” value (corn) was 15. For the same compound, the “Plant response rating, Corn” value (corn; 31 g ai/ha, 13 to 15 days) was 5, the “Plant response rating, Corn” value (corn; 62 g ai/ha) was 10 and the “Foxtail, Giant plant response rating” value (giant foxtail [2]; 13 to 15 days) was 10. The “Plant response rating (0 to 100), Foxtail, Giant” value (giant foxtail [2]) was 15, the “Plant response rating, Foxtail, Giant” value (giant foxtail [2]; 31 g ai/ha, 13 to 15 days) was 5 and the “Plant response rating, Foxtail, Giant” value (giant foxtail [2]; 62 g ai/ha) was 10. For the same compound, the “Plant response rating (0 to 100), Nutsedge, Yellow” value (yellow nutsedge) was 5, the “Plant response rating, Nutsedge, Yellow” value (yellow nutsedge; 31 g ai/ha, 13 to 15 days) was 5 and the “Plant response rating, Nutsedge, Yellow” value (yellow nutsedge; 62 g ai/ha) was 5. For the same compound, the “Plant response rating, Morningglory” value (morningglory [3]; 125 g ai/ha) was 90, the “Plant response rating, Morningglory” value (morningglory [3]; 500 g ai/ha) was 100 and the “Blackgrass plant response rating” value (blackgrass; 13 to 15 days) was 10. For the same compound, the “Plant response rating (0 to 100), Blackgrass” value (blackgrass) was 40, the “Plant response rating, Blackgrass” value (blackgrass; 31 g ai/ha, 13 to 15 days) was 5 and the “Plant response rating, Blackgrass” value (blackgrass; 62 g ai/ha) was 10. For the same compound, the “Crabgrass, Large plant response rating” value (large (Lg) crabgrass [4]; 13 to 15 days) was 5, the “Plant response rating (0 to 100), Crabgrass, Large” value (large (Lg) crabgrass [4]) was 55 and the “Plant response rating, Crabgrass, Large” value (large (Lg) crabgrass [4]; 31 g ai/ha, 13 to 15 days) was 10. The “Plant response rating, Crabgrass, Large” value (large (Lg) crabgrass [4]; 62 g ai/ha) was 15, the “Plant response rating (0 to 100), Oat, Wild” value (wild oat) was 25 and the “Plant response rating, Oat, Wild” value (wild oat; 31 g ai/ha, 13 to 15 days) was 10. For the same compound, the “Plant response rating, Oat, Wild” value (wild oat; 62 g ai/ha) was 15, the “Plant response rating (0 to 100), Ryegrass, Italian” value (Italian ryegrass) was 15 and the “Plant response rating, Ryegrass, Italian” value (Italian ryegrass; 31 g ai/ha, 13 to 15 days) was 5. For the same compound, the “Plant response rating, Ryegrass, Italian” value (Italian ryegrass; 62 g ai/ha) was 5, the “Plant response rating, Morningglory” value (morningglory [5]) was 100 and the “Morningglory plant response rating” value (morningglory [5]) was 100. The “Plant response rating, Foxtail, Giant” value (giant foxtail [6]) was 100, the “Foxtail, Giant plant response rating” value (giant foxtail [6]) was 100 and the “Chickweed plant response rating” value (chickweed; 13 to 15 days) was 70. The “Plant response rating (0 to 100), Chickweed” value (chickweed) was 90, the “Plant response rating, Chickweed” value (chickweed; 31 g ai/ha, 13 to 15 days) was 60 and the “Plant response rating, Chickweed” value (chickweed; 62 g ai/ha) was 80.
